Experimental data from ChEMBL document CHEMBL1151582, “The effect of pH on the solution structure of 1-pyrroline-2-carboxylic acid as revealed by NMR and electrospray mass spectroscopy” (Bioorg Med Chem Lett, 1993).

Key:
[1] = Acid dissociation constant of compound was determined (for pyrrolinium group); format: ADME
[2] = Acid dissociation constant of compound was determined (for carboxylic acid group); format: ADME

- pKa [1]: 6.2
- pKa [2]: 1.8
SMILES: O=C(O)C1=NCCC1
